{
  "source": "patent US11970509B1",
  "about": "“Water soluble nano-sized imine Ru(III) complex based on 4-aminobenzene sodium sulphonate for biomedical applications” (KING FAISAL UNIVERSITY, priority 2023, dated 2024)",
  "key": {"[1]": {"test_system": "Breast cancer cells line", "experiment": "Cytotoxic activity, Sulfo-Rhodamine-B-stain (SRB), breast cancer cell line", "conditions": "Homo sapiens, 48 h"}, "[2]": {"test_system": "Escherichia coli(-ve)", "experiment": "Antimicrobial activity, agar well diffusion method, E. coli", "format": "cell-based", "description": "To evaluate antimicrobial activity, the bacterial strain Escherichia coli(-ve), was used. These strains cultured in nutrient agar and Muller-Hinton medium. Ofloxacin compounds were used as a standard drug for comparison. The susceptibilities of such growth rate of microorganisms were measured in vitro by agar well diffusion method. The tested nano complex was dissolved in dimethylsulfoxide at different concentrations (10 and 20 mg/ml). 1 cm^3 of a 24 h broth culture containing 10^6 CFU/cm^3 was placed in sterile Petri-dishes. Molten nutrient agar (15 cm^3) maintained at 45° C. was then poured into the Petri-dishes and allowed to solidify. Then holes of 6 mm diameter were formed in the agar using a sterile cork borer and these holes were completely filled with the test solutions. The plates were incubated for 24 h at 37° C. After the incubation period, the zone of inhibition of each well was determined by measuring the zones of growth inhibition (mm) against the test microorganisms with zone reader (Hi Antibiotic zone scale). […] The measurements were made in triplicate for each compound and their average values are reported."}, "[3]": {"test_system": "Aspergillus flavus", "experiment": "Antifungal activity, well diffusion method, Aspergillus flavus", "format": "cell-based", "description": "To evaluate antimicrobial activity, the fungal strain (Aspergillus flavus), was used. These strains cultured in nutrient agar and Muller-Hinton medium. Fluconazole compounds were used as a standard drug for comparison.\nAntifungal activities of the prepared water soluble nano-complex were studied against three fungal cultures using well diffusion method. The tested fungi were inoculated in Sabouraud dextrose broth medium (Hi-Media Mumbai) and incubated at 35° C. for 72 h and subsequently a suspension of about 1.60×10^4-6.00×10^4 c.f.u/ml was introduced agar plates and a sterile glass spreader was used for even distribution of the inoculum. The discs measuring 6 mm in diameter were prepared from Whatman No. 1 filter paper and sterilized by dry heat at 140° C. for 1 h. The sterile discs previously soaked in known concentration of the tested compounds were placed in Sabouraud dextrose Agar (SDA) plates. The plates were inverted and incubated at 35° C. for 7 days. The susceptibility was assessed on the basis of diameter of inhibition against albicans and non-albicans strain of fungi."}},
  "data": [
    {"compound": "COc1cccc2c1C(=O)c1c(O)c3c(c(O)c1C2=O)C[C@@](O)(C(=O)CO)C[C@@H]3O[C@H]1C[C@H](N)[C@H](O)[C@H](C)O1", "note": "[Doxorubicin, reference compound]", "values": [
      {"measurement": "IC50", "setting": "[1]", "result": 4, "unit": "µg/mL"}
    ]},
    {"compound": "CC1COc2c(N3CCN(C)CC3)c(F)cc3c(=O)c(C(=O)O)cn1c23", "note": "(centres unmarked) [Ofloxacin, reference compound]", "values": [
      {"measurement": "MIC", "setting": "[2]; Escherichia coli", "result": 2.5, "unit": "µg/mL"},
      {"measurement": "inhibition zone", "setting": "[2]; agar well diffusion, 24 h at 37° C.", "result": 38, "unit": "mm"}
    ]},
    {"compound": "OC(Cn1cncn1)(Cn1cncn1)c1ccc(F)cc1F", "note": "[Fluconazol, reference compound]", "values": [
      {"measurement": "MIC", "setting": "[3]", "result": 1.75, "unit": "µg/mL"},
      {"measurement": "inhibition zone", "setting": "[3]; well diffusion, 35° C. for 7 days", "result": 28, "unit": "mm"}
    ]}
  ]
}
